Drawing on patent US10414774B2, “Compound useful for altering the levels of bile acids for the treatment of diabetes and cardiometabolc disease” (Merck Sharp & Dohme Corp., priority 2016, dated 2019), this text covers IC50 for 19 compounds.

Where two headings read alike, the source gives them in different places.

The target in the test is T1, Human CYP8B1 (Homo sapiens, UniProt Q9UNU6).
T1 sequence (Q9UNU6 1-501): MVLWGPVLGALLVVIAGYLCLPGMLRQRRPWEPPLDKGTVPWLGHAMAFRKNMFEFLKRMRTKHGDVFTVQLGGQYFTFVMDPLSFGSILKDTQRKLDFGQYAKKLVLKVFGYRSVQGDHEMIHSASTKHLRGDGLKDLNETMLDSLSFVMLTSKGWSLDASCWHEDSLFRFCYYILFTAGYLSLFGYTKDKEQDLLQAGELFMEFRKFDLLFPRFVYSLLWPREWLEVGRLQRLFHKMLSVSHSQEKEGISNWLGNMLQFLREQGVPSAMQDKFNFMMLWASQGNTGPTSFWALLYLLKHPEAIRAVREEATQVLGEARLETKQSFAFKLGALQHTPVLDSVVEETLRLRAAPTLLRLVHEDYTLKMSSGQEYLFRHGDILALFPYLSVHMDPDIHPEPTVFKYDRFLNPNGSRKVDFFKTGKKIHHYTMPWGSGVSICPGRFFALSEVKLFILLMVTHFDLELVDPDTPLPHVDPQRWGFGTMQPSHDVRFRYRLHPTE
Briefly: Human CYP8B1 Liver Microsome Assay. The following applies: substrate 7a-hydroxy-4-cholesten-3-one, NADPH, RapidFire MS detection of 7α,12α-dihydroxy-4-cholesten-3-one. In general terms: Microsomes from liver hold many membrane-bound enzymes, among them those of drug oxidation.

Setting [1] is: Human CYP8B1 IC50, human liver microsomes.

Description: To a 384 well polypropylene plate (Corning 3656), 250 nl of inhibitor in 100% DMSO (1.25% final DMSO concentration) was pre-plated using an Echo liquid handler (Labcyte Inc.). Human liver microsomes (Xenotech) were diluted in of 0.1 M phosphate buffer, pH 7.4, at a concentration of 65 μg/ml and 15 μL was added to the 384 well plate. The plates were incubated at ambient room temperature for 30 minutes. After pre-incubation with inhibitor, the reaction was initiated by adding 5 μl of substrate solution (4.0 μM 7a-hydroxy-4-cholesten-3-one (Toronto Research Chemicals), 2 mM of NADPH (Sigma), 0.1 M phosphate buffer (pH 7.4). The reaction was carried out for 45 minutes at ambient room temperature and was quenched by the addition of 50 μl of acetonitrile+0.1% vol/vol formic acid (FA)+300 nM 7α-hydroxy-4-cholesten-3-one-d7 (Toronto Research Chemicals). The plates were sealed and centrifuged at 3000 rpm for 5 minutes. Plates were loaded onto the Agilent RapidFire RF300 HTMS system, wherein samples were sipped for 600 ms, and the sip sensor detection signals the diversion of sample from the loop onto a C4 solid phase extraction (SPE) cartridge, where salts are washed off for 2500 ms with a mobile phase of water with 0.1% vol/vol FA at a flow rate of 1.5 ml/min. The column path was switched, and the sample was eluted off the cartridge and flowed into the mass spectrometer for 3000 ms with a mobile phase of acetonitrile and 0.1% vol/vol FA at a flow rate of 1.25 ml/min. The aspirator tip was washed separately with water and acetonitrile between sample aspirations (each for 600 ms) to minimize carryover contamination. Mass spectrometry was carried out using a Sciex API4000 triple quadrupole mass spectrometer (Applied Biosystems, Concord, ON, Canada) equipped with electrospray ionization (ESI) operated in the positive-ion mode. The product 7α,12α-dihydroxy-4-cholesten-3-one and internal standard 7α-hydroxy-4-cholsten-3-one-d7 were detected using multiple reaction monitoring (MRM) with Q1/Q3 transitions at m/z 417.3 to 381.3 and m/z 408.3 to 390.3, respectively, with a dwell time of 100 ms and a collision energy of 24 V for each transition. The mass spectrometer used an ESI voltage of 5000 V and a source temperature of 650° C. Extracted ion chromatograms for each transition were integrated and processed using the RapidFire Integrator software. The data for each well were normalized by monitoring product conversion with the ratio of AUCproduct/(AUCinternal standard). The data was then fitted to a four parameter logistic fit using ActivityBase Software to calculate an IC50 of the inhibitor.

As to `CC1CC(C(=O)N2CCn3c(nnc3C(F)(F)F)C2)CCN1c1c(C#N)cnc2ccc(Cl)cc12` (single isomer, unassigned) [Example 73c, 6-chloro-4-[(2R,4S) or (2S,4R)-2-methyl-4-{[3-(trifluoromethyl)-5,6-dihydro[1,2,4]triazolo[4,3-a]pyrazin-7(8H)-yl]carbonyl}piperidin-1-yl]quinoline-3-carbonitrile], half-maximal inhibition under setting [1] (IC50) required 16 nM.

Regarding `CC(C)c1ncc2n1CCN(C(=O)C1CCN(c3c(C#N)cnc4ccc(Cl)cc34)CC1)C2` [Example 115, 6-chloro-4-(4-{[3-(propan-2-yl)-5,6-dihydroimidazo[1,5-a]pyrazin-7(8H)-yl]carbonyl}piperidin-1-yl)quinoline-3-carbonitrile], the IC50 (commonly the concentration that gives 50% inhibition) under setting [1] is 1670 nM.

Compound `C[C@@H]1CN(c2c(C#N)cnc3cc(Cl)ccc23)CC[C@@H]1C(=O)N1CCn2c(nnc2C(F)(F)F)C1` [Example 27, 7-chloro-4-[(3S,4S)-3-methyl-4-{[3-(trifluoromethyl)-5,6-dihydro[1,2,4]triazolo[4,3-a]pyrazin-7(8H)-yl]carbonyl}piperidin-1-yl]quinoline-3-carbonitrile] returned an IC50 under setting [1] of 0.74 nM.

Compound `COc1cccc2nc(C)c(C#N)c(N3CC[C@H](C(=O)N4CCn5c(nnc5C(F)(F)F)C4)[C@H](C)C3)c12` [Example 35, 5-methoxy-2-methyl-4-[(3S,4S)-3-methyl-4-{[3-(trifluoromethyl)-5,6-dihydro[1,2,4]triazolo[4,3-a]pyrazin-7(8H)-yl]carbonyl}piperidin-1-yl]quinoline-3-carbonitrile] had an IC50 under setting [1] of 1.4 nM.

Turning to `C[C@H]1CN(c2c(C#N)cnc3ccc(C(F)(F)F)cc23)CC[C@H]1C(=O)N1CCn2c(nnc2C(F)(F)F)C1` (single isomer, unassigned) [Example 119b], the IC50 (read-out: Human CYP8B1 IC50, human liver microsomes) stood at 0.3 nM.

Regarding `C[C@@H]1CN(c2c(C#N)cnc3c(C(F)F)cc(Cl)cc23)CC[C@@H]1C(=O)N1CCn2c(nnc2C(F)(F)F)C1` [Example 3, 6-chloro-8-(difluoromethyl)-4-[(3S,4S)-3-methyl-4-{[3-(trifluoromethyl)-5,6-dihydro[1,2,4]triazolo[4,3-a]pyrazin-7(8H)-yl]carbonyl}piperidin-1-yl]quinoline-3-carbonitrile], inhibition under setting [1] was half-maximal at 21 nM (IC50).

In the case of `Cn1nc(C(F)(F)F)c2c1CN(C(=O)C1CCN(c3c(C#N)cnc4ccc(Cl)cc34)CC1)CC2` [Example 113, 6-chloro-4-(4-{[1-methyl-3-(trifluoromethyl)-1,4,5,7-tetrahydro-6H-pyrazolo[3,4-c]pyridin-6-yl]carbonyl}piperidin-1-yl)quinoline-3-carbonitrile], the IC50 under setting [1] was found to be 16.1 nM.

Under setting [1], `COc1ccc2ncc(C#N)c(N3CCC(C(=O)N4CCn5c(nnc5C(F)(F)F)C4)CC3)c2c1` [Example 46, 6-methoxy-4-(4-(3-(trifluoromethyl)-5,6,7,8-tetrahydro-[1,2,4]triazolo[4,3-a]pyrazine-7-carbonyl)piperidin-1-yl)quinoline-3-carbonitrile] gave an IC50 of 68 nM.

Consider `N#Cc1cnc2ccc(Cl)cc2c1N1CCC(C(=O)N2CCn3c(nnc3C(F)(F)F)C2)CC1` [Example 103, 6-chloro-4-(4-(3-(trifluoromethyl)-5,6,7,8-tetrahydro-[1,2,4]triazolo[4,3-a]pyrazine-7-carbonyl)piperidin-1-yl)quinoline-3-carbonitrile], for which the IC50 under setting [1] is 23.2 nM.

`C=Cc1ccc2nc(C)c(C#N)c(N3CCC(C(=O)N4CCn5c(nnc5C(F)(F)F)C4)CC3)c2c1` [Example 54, 2-methyl-4-(4-(3-(trifluoromethyl)-5,6,7,8-tetrahydro-[1,2,4]triazolo[4,3-a]pyrazine-7-carbonyl)piperidin-1-yl)-6-vinylquinoline-3-carbonitrile]: the IC50 under setting [1] came out at 149 nM.

In turn, `C[C@@H]1CN(c2c(C#N)cnc3c(F)c(OC(F)F)ccc23)CC[C@@H]1C(=O)N1CCn2c(nnc2C(F)(F)F)C1` [Example 36, 7-(difluoromethoxy)-8-fluoro-4-[(3S,4S)-3-methyl-4-{[3-(trifluoromethyl)-5,6-dihdyro[1,2,4]triazolo[4,3-a]pyrazin-7(8H)-yl]carbonyl}piperidin-1-yl]quinoline-3-carbonitrile] had an IC50 under setting [1] of 0.4 nM.

The compound `Cc1nc2ccc(Cl)cc2c(N2CC[C@H](C(=O)N3CCc4[nH]ncc4C3)[C@H](C)C2)c1C#N` [Example 95, 6-chloro-2-methyl-4-[(3S,4S)-3-methyl-4-(1,4,6,7-tetrahydro-5H-pyrazolo[4,3-c]pyridin-5-ylcarbonyl)piperidin-1-yl]quinoline-3-carbonitrile] came in with an IC50 under setting [1] of 17 nM.

Compound `N#Cc1cnc2c(F)c(Cl)ccc2c1N1CCC(C(=O)N2CCn3c(nnc3C(F)(F)F)C2)CC1` [Example 41, 7-chloro-8-fluoro-4-(4-{[3-(trifluoromethyl)-5,6-dihdyro[1,2,4]triazolo[4,3-a]pyrazin-7(8H)-yl]carbonyl}piperidin-1-yl)quinoline-3-carbonitrile] displayed an IC50 under setting [1] of 43 nM.

Under setting [1], `N#Cc1cnc2ccc(Cl)cc2c1N1CCC(C(=O)N2CCn3cc(C(F)(F)F)nc3C2)CC1` [Example 104, 6-chloro-4-(4-{[2-(trifluoromethyl)-5,6-dihydroimidazo[1,2-a]pyrazin-7(8H)-yl]carbonyl}piperidin-1-yl)quinoline-3-carbonitrile] came in with an IC50 of 863 nM.

Under setting [1], `COc1nc2ccc(Cl)cc2c(N2CCC(C(=O)N3CCn4c(nnc4C(F)(F)F)C3)C(C)C2)c1C#N` (stereo not shown) [Example 126, 6-chloro-2-methoxy-4-(3-methyl-4-{[3-(trifluoromethyl)-5,6-dihydro[1,2,4]triazolo[4,3-a]pyrazin-7(8H)-yl]carbonyl}piperidin-1-yl)quinoline-3-carbonitrile] returned an IC50 of 210 nM.

`CCOc1ccc2c(N3CC[C@H](C(=O)N4CCn5c(nnc5C(F)(F)F)C4)[C@H](C)C3)c(C#N)cnc2c1` [Example 39, 7-ethoxy-4-[(3S,4S)-3-methyl-4-{[3-(trifluoromethyl)-5,6-dihydro[1,2,4]triazolo[4,3-a]pyrazin-7(8H)-yl]carbonyl}piperidin-1-yl]quinoline-3-carbonitrile] registered an IC50 under setting [1] of 0.7 nM.

`N#Cc1cnc2cc(Br)ccc2c1N1CCC(C(=O)N2CCn3c(nnc3C(F)(F)F)C2)CC1` [Example 40, 7-bromo-4-(4-{[3-(trifluoromethyl)-5,6-dihydro[1,2,4]triazolo[4,3-a]pyrazin-7(8H)-yl]carbonyl}piperidin-1-yl)quinoline-3-carbonitrile] showed an IC50 under setting [1] of 12 nM.

Regarding `C[C@@H]1CN(c2c(C#N)cnc3c(F)c(F)ccc23)CC[C@@H]1C(=O)N1CCn2c(nnc2C(F)(F)F)C1` [Example 8, 7,8-difluoro-4-[(3S,4S)-3-methyl-4-{[3-(trifluoromethyl)-5,6-dihydro[1,2,4]triazolo[4,3-a]pyrazin-7(8H)-yl]carbonyl}piperidin-1-yl]quinoline-3-carbonitrile], the half-inhibitory concentration (IC50) under setting [1] is 1.3 nM.

`COc1ccc2nc(C)c(C#N)c(N3CCC(C(=O)N4CCn5c(nnc5C(F)(F)F)C4)CC3)c2c1` [Example 47, 6-methoxy-2-methyl-4-(4-(3-(trifluoromethyl)-5,6,7,8-tetrahydro-[1,2,4]triazolo[4,3-a]pyrazin-7-carbonyl)piperidin-1-yl)quinoline-3-carbonitrile] had a half-maximal inhibitory concentration (IC50) under setting [1] of 564 nM.
